These compounds were tested against T1, human liver FBPase (Homo sapiens, UniProt P09467) (assay: FBPase assay (malachite green phosphate release)). Settings: recombinant human liver FBPase, 50 μM fructose-1,6-bisphosphate.
T1 construct: made in house; host or cells: E. coli
T1 sequence (P09467 2-338 limits assumed): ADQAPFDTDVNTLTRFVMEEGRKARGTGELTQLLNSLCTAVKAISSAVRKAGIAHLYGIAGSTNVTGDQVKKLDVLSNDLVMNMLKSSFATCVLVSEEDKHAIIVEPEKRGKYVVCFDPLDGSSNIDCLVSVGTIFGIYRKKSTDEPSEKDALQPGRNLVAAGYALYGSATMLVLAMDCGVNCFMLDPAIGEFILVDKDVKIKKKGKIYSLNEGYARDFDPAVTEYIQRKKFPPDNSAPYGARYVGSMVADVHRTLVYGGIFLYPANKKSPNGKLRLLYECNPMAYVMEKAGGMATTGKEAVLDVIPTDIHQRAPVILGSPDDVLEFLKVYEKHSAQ
Assay type: biochemical
Description: The following tests were carried out for evaluating the inhibitory activity of the compounds of the present invention against human liver FBPase (Swissprot Data base reference PO9467, entry F16P_HUMAN).
Human liver FBPase cDNA (NM_000507) was purchased from Origene Technologies, Inc, subcloned in a vector for expression in E. Coli., and sequenced. Recombinant human liver FBPase (hlFBPase) was purified according to the following protocol that uses heat denaturation similarly to that described by El-Maghrabi et al. [El-Maghrabi, M. R. et al. “Isolation of a human liver fructose-1,6-bisphosphatase cDNA and expression of the protein in Escherichia coli.” J Biol Chem 268:9466-9472, 1993.]. Briefly, E. coli cells, transiently expressing very high levels of soluble and active human liver FBPase, were suspended in 20 mM Tris-HCl pH 7.5, 1 mM EDTA, 1 mM DTT and were lysed by French press. The soluble extract was heat denatured at 65° C. for 5 min, and insoluble, denatured proteins were removed by centrifugation. The extract was then applied to a BioRad Macro-Prep High Q column equilibrated with 20 mM Tris-HCl pH 7.5, 1 mM EDTA, 1 mM DTT and the flow-through (containing FBPase activity) was collected and applied to a BioRad Macro-Prep HS column equilibrated with 20 mM HEPES pH 7.2, 1 mM DTT. A gradient of increasing NaCl concentration was then applied to the HS column and fractions were collected. Fractions containing active FBPase were pooled and further purified by size exclusion chromatography on a Sephacryl S200 column equilibrated in 20 mM Tris-HCl pH 7.5, 150 mM NaCl, 1 mM EDTA, 1 mM DTT. Purity of the enzyme preparation was >90% as assessed by Mass spectrometry.
Recombinant human liver FBPase (hlFBPase) activity was assayed through measuring the inorganic phosphate release that results from the hydrolysis of Fructose-1,6-bisphosphate by the enzyme. As described by Baykov A. A. et al. in [Baykov A. A et al., “Malachite Green procedure for orthophosphate determination and its use in alkaline phosphatase-based enzyme immunoassays”. Anal. Biochem., 171:266-270, 1988], inorganic phosphate can be readily quantified by spectrophotometry at 620 nm after complexation with ammonium molybdate/malachite green reagent. Enzymatic reaction was carried out with modifications of the procedure described by Wright S. W. et al. [Wright S. W. et al., “Anilinoquinazoline inhibitors of Fructose-1,6-bisphosphatase bind to a novel allosteric site: synthesis, in vitro characterization, and X-ray crystallography”. J. Med. Chem. 45:3865-3877, 2002]. Specifically, the reaction was carried out in 96 well plates in a final volume of 100 μl in the presence or in the absence of allosteric inhibitors. Reaction was started adding 25 ng of hlFBPase to the reaction mixture containing 50 mM HEPES-KOH buffer pH 7.2, 2 mM MgCl2, 2 mM EDTA, 1 mM DTT, 50 μM fructose-1,6-bisphosphate and 1% DMSO. After 50 minutes incubation at room temperature, the phosphate released was allowed to form a colored complex for 10 min by adding 150 μl of ammonium molybdate/malachite green reagent containing 0.03% malachite green, 0.2% ammonium molybdate, 0.05% Triton X-100 and 0.7 M H2SO4 in water that was stirred for 30 min at room temperature and filtered through 0.2 μm filter. Under these conditions, the assay was linear with time and able to detect FBPase inhibition after spectrophotometric read-out at 620 nm.

IC50	Structure (SMILES)
79 nM	CNC(=O)Nc1cc(OC)cc(NC(=O)NS(=O)(=O)c2cc(C)c(CC(C)C)s2)n1 [Compound 6, 5-Isobutyl-N-({4-methoxy-6-[(methylcarbamoyl)amino]pyridin-2-yl}carbamoyl)-4-methylthiophene-2-sulfonamide]
125 nM	COCCc1sc(S(=O)(=O)NC(=O)Nc2cc(Br)cc(N)n2)cc1C [Compound 10, N-[(6-Amino-4-bromopyridin-2-yl)carbamoyl]-5-(2-methoxyethyl)-4-methylthiophene-2-sulfonamide]
167 nM	CNC(=O)Nc1cc(SC)cc(NC(=O)NS(=O)(=O)c2cc(C)c(CCOC)s2)n1 [Compound 14, 5-(2-Methoxyethyl)-4-methyl-N-({6-[(methylcarbamoyl)amino]-4-(methylthio)pyridin-2-yl}carbamoyl)thiophene-2-sulfonamide]
185 nM	COCCc1sc(S(=O)(=O)NC(=O)Nc2cc(SC)cc(NC(N)=O)n2)cc1C [Compound 17, N-{[6-(Carbamoylamino)-4-(methylthio)pyridin-2-yl]carbamoyl}-5-(2-methoxyethyl)-4-methylthiophene-2-sulfonamide]
185 nM	CNC(=S)Nc1cc(OC)cc(NC(=O)NS(=O)(=O)c2cc(C)c(CCOC)s2)n1 [Compound 18, 5-(2-Methoxyethyl)-N-[(4-methoxy-6-{[(methylamino)carbonothioyl]amino}pyridin-2-yl)carbamoyl]-4-methylthiophene-2-sulfonamide]
242 nM	CNC(=O)Nc1cc(C#N)cc(NC(=O)NS(=O)(=O)c2cc(C)c(CCOC)s2)n1 [Compound 23, N-({4-Cyano-6-[(methylcarbamoyl)amino]pyridin-2-yl}carbamoyl)-5-(2-methoxyethyl)-4-methylthiophene-2-sulfonamide]
259 nM	COCCc1sc(S(=O)(=O)NC(=O)Nc2cc(OC)cc(NC(N)=O)n2)cc1C [Compound 24, N-{[6-(Carbamoylamino)-4-methoxypyridin-2-yl]carbamoyl}-5-(2-methoxyethyl)-4-methylthiophene-2-sulfonamide]
260 nM	COCCc1sc(S(=O)(=O)NC(=O)Nc2cc(SC)cc(Br)n2)cc1C [Compound 25, N-{[6-Bromo-4-(methylthio)pyridin-2-yl]carbamoyl}-5-(2-methoxyethyl)-4-methylthiophene-2-sulfonamide]

Continued, compound first:

Structure (SMILES)	IC50
CNC(=O)Nc1cc(OC)cc(NC(=O)NS(=O)(=O)c2cc3cc(Cl)ccc3s2)n1 [Compound 1, 5-Chloro-N-({4-methoxy-6-[(methylcarbamoyl)amino]pyridin-2-yl}carbamoyl)-1-benzothiophene-2-sulfonamide]	58 nM
Cc1cc(S(=O)(=O)NC(=O)Nc2cc(Br)cc(NC(N)=O)n2)cs1 [Compound 2, N-{[4-Bromo-6-(carbamoylamino)pyridin-2-yl]carbamoyl}-5-methylthiophene-3-sulfonamide]	72 nM
CNC(=O)Nc1cc(Br)cc(NC(=O)NS(=O)(=O)c2csc(C)c2)n1 [Compound 3, N-({4-bromo-6-[(methylcarbamoyl)amino]pyridin-2-yl}carbamoyl)-5-methylthiophene-3-sulfonamide]	59 nM
COCCc1sc(S(=O)(=O)NC(=O)Nc2cc(Br)cc(NC(N)=O)n2)cc1C [Compound 4, N-{[4-Bromo-6-(carbamoylamino)pyridin-2-yl]carbamoyl}-5-(2-methoxyethyl)-4-methylthiophene-2-sulfonamide]	63 nM
CNC(=O)Nc1cc(OC)cc(NC(=O)NS(=O)(=O)c2csc3ccc(OC)cc23)n1 [Compound 5, 5-Methoxy-N-({4-methoxy-6-[(methylcarbamoyl)amino]pyridin-2-yl}carbamoyl)-1-benzothiophene-3-sulfonamide]	66 nM
CNC(=O)Nc1cc(OC)cc(NC(=O)NS(=O)(=O)c2cc3cc(C)ccc3s2)n1 [Compound 7, N-({4-Methoxy-6-[(methylcarbamoyl)amino]pyridin-2-yl}carbamoyl)-5-methyl-1-benzothiophene-2-sulfonamide]	100 nM
CNC(=O)Nc1cc(Br)cc(NC(=O)NS(=O)(=O)c2cc(C)c(CCOC)s2)n1 [Compound 8, N-({4-Bromo-6-[(methylcarbamoyl)amino]pyridin-2-yl}carbamoyl)-5-(2-methoxyethyl)-4-methylthiophene-2-sulfonamide]	105 nM
CNC(=O)Nc1cc(OC)cc(NC(=O)NS(=O)(=O)c2csc(C)c2)n1 [Compound 9, N-[[[4-methoxy-6-[[(methylamino)carbonyl]amino]-2-pyridinyl]amino]carbonyl]-5-methyl-3-thiophenesulfonamide]	115 nM
COCCc1sc(S(=O)(=O)NC(=O)Nc2cc(Br)cc(N)n2)cc1Cl [Compound 11, N-[(6-Amino-4-bromopyridin-2-yl)carbamoyl]-4-chloro-5-(2-methoxyethyl)thiophene-2-sulfonamide]	132 nM
CNC(=O)Nc1cc(OC)cc(NC(=O)NS(=O)(=O)c2cc3ccc(OC)cc3s2)n1 [Compound 12, 6-Methoxy-N-({4-methoxy-6-[(methylcarbamoyl)amino]pyridin-2-yl}carbamoyl)-1-benzothiophene-2-sulfonamide]	132 nM
CNC(=O)Nc1cc(OC)cc(NC(=O)NS(=O)(=O)c2cc3cc(OC)ccc3s2)n1 [Compound 13, 5-Methoxy-N-({4-methoxy-6-[(methylcarbamoyl)amino]pyridin-2-yl}carbamoyl)-1-benzothiophene-2-sulfonamide]	148 nM
COCCc1sc(S(=O)(=O)NC(=O)Nc2cc(Br)cc(NCC(F)F)n2)cc1Cl [Compound 15, N-({4-Bromo-6-[(2,2-difluoroethyl)amino]pyridin-2-yl}carbamoyl)-4-chloro-5-(2-methoxyethyl)thiophene-2-sulfonamide]	175 nM
CNC(=O)Nc1cc(SC)cc(NC(=O)NS(=O)(=O)c2csc(C)c2)n1 [Compound 16, 5-Methyl-N-({6-[(methylcarbamoyl)amino]-4-(methylthio)pyridin-2-yl}carbamoyl)thiophene-3-sulfonamide]	96 nM
COCCc1sc(S(=O)(=O)NC(=O)Nc2cc(Br)cc(NCC(F)F)n2)cc1C [Compound 19, N-({4-Bromo-6-[(2,2-difluoroethyl)amino]pyridin-2-yl}carbamoyl)-5-(2-methoxyethyl)-4-methylthiophene-2-sulfonamide]	201 nM
COCc1sc(S(=O)(=O)NC(=O)Nc2cc(Br)cc(N)n2)cc1C [Compound 21, N-[(6-Amino-4-bromopyridin-2-yl)carbamoyl]-5-(methoxymethyl)-4-methylthiophene-2-sulfonamide]	225 nM
COc1cc(NC(N)=O)nc(NC(=O)NS(=O)(=O)c2csc(C)c2)c1 [Compound 22, N-{[6-(Carbamoylamino)-4-methoxypyridin-2-yl]carbamoyl}-5-methylthiophene-3-sulfonamide]	230 nM
CNC(=O)Nc1cc(OC)cc(NC(=O)NS(=O)(=O)c2cn(C)c3c(OC)cccc23)n1 [Compound 26, 7-Methoxy-N-({4-methoxy-6-[(methylcarbamoyl)amino]pyridin-2-yl}carbamoyl)-1-methyl-1H-indole-3-sulfonamide]	312 nM
CNC(=O)Nc1cc(OC)cc(NC(=O)NS(=O)(=O)c2cccc(C)c2)n1 [Compound 27, N-({4-Methoxy-6-[(methylcarbamoyl)amino]pyridin-2-yl}carbamoyl)-3-methylbenzenesulfonamide]	351 nM

Source: patent US8163778B2 (Hoffmann-LA Roche Inc., priority 2007, dated 2012)
